According to ChEMBL document CHEMBL1201862, “PubChem BioAssay data set” (2004):
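Each compound was tested at five concentrations against cells in 96-well plates for 48 hours. GI50 = concentration required for 50% inhibition of growth.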 The source made the active and inactive calls. Rule as the data show it: active = GI50 up to about 1.1 µM and inactive = higher.

Experiments:
Experiment in all cases: inhibition of tumour cell growth, NCI panel, 48 h
[1] = system: 786-0
[2] = system: A549
[3] = system: ACHN
[4] = system: COLO 205
[5] = system: HCC 2998
[6] = system: Hs-578T
[7] = system: IGROV-1
[8] = system: K562
[9] = system: M14
[10] = system: MDA-MB-231
[11] = system: MOLT-4
[12] = system: NCI-H226
[13] = system: NCI/ADR-RES
[14] = system: OVCAR-5
[15] = system: SF-268
[16] = system: SK-MEL-28
[17] = system: SN12C
[18] = system: SNB-75
[19] = system: SW-620
[20] = system: UO-31

SMILES	GI50 [1]	GI50 [2]	GI50 [3]	GI50 [4]	GI50 [5]	GI50 [6]	GI50 [7]	GI50 [8]	GI50 [9]	GI50 [10]	GI50 [11]	GI50 [12]	GI50 [13]	GI50 [14]	GI50 [15]	GI50 [16]	GI50 [17]	GI50 [18]	GI50 [19]	GI50 [20]
S=c1[nH]nc(Cc2ccccc2)c(=S)[nH]1	> 100 µM (inactive)	> 69.8 µM (inactive)	4.8 µM (inactive)	> 79.6 µM (inactive)	> 45.9 µM (inactive)	33 µM (inactive)	> 53.1 µM (inactive)	61.1 µM (inactive)	> 78.9 µM (inactive)	26.1 µM (inactive)	> 59.7 µM (inactive)	> 95.3 µM (inactive)	49.4 µM (inactive)	> 50.2 µM (inactive)	4.63 µM (inactive)	> 68.2 µM (inactive)	65.3 µM (inactive)	23.1 µM (inactive)	> 100 µM (inactive)	46.5 µM (inactive)
CCOC(=O)/C=C(\C(=O)OCC)n1ccc(=O)[nH]c1=O	4.85 µM (inactive)	29.8 µM (inactive)	9.35 µM (inactive)	2.67 µM (inactive)	22.4 µM (inactive)	29.4 µM (inactive)	15.4 µM (inactive)	4.38 µM (inactive)	16.5 µM (inactive)	14.3 µM (inactive)	3.44 µM (inactive)	13.3 µM (inactive)	26.2 µM (inactive)	19.7 µM (inactive)	20 µM (inactive)	16.9 µM (inactive)	11.8 µM (inactive)	17.1 µM (inactive)	2.64 µM (inactive)	16.9 µM (inactive)
CCOc1cc(C=O)c2c(ccc3ccc(OC)c(OC)c32)c1OC	> 100 µM (inactive)	46.1 µM (inactive)	44 µM (inactive)	32.5 µM (inactive)	83.8 µM (inactive)	37.8 µM (inactive)	89.9 µM (inactive)	14.5 µM (inactive)	89.3 µM (inactive)	> 100 µM (inactive)	13.3 µM (inactive)	67.1 µM (inactive)	17.5 µM (inactive)	> 100 µM (inactive)	> 100 µM (inactive)	89.9 µM (inactive)	70.6 µM (inactive)	36.3 µM (inactive)	–	66.8 µM (inactive)
O=C1C=CC(=O)c2c(O)c(N3CCN(c4ccccn4)CC3)cc(O)c21	7.24 µM (inactive)	5.85 µM (inactive)	6.89 µM (inactive)	5.35 µM (inactive)	8.73 µM (inactive)	16.1 µM (inactive)	10.1 µM (inactive)	4.38 µM (inactive)	3.29 µM (inactive)	13 µM (inactive)	4.22 µM (inactive)	45.7 µM (inactive)	2.33 µM (inactive)	46.5 µM (inactive)	11.9 µM (inactive)	13.7 µM (inactive)	7.6 µM (inactive)	7.41 µM (inactive)	3.58 µM (inactive)	8.28 µM (inactive)
O=C(O)c1c(-c2c3ccc(=O)cc-3oc3cc(O)ccc23)cc2ccccc2c1-c1ccccc1	> 100 µM (inactive)	> 100 µM (inactive)	> 100 µM (inactive)	> 100 µM (inactive)	> 34 µM (inactive)	> 100 µM (inactive)	> 100 µM (inactive)	4.51 µM (inactive)	> 100 µM (inactive)	> 100 µM (inactive)	4.85 µM (inactive)	> 100 µM (inactive)	> 100 µM (inactive)	> 100 µM (inactive)	> 100 µM (inactive)	> 100 µM (inactive)	> 100 µM (inactive)	41.5 µM (inactive)	> 100 µM (inactive)	> 100 µM (inactive)
COc1ccc(/N=C2\C(=N/c3ccc(OC)cc3)N(S(=O)(=O)c3ccccc3)C(=S)N2c2ccccc2)cc1	> 100 µM (inactive)	> 100 µM (inactive)	> 100 µM (inactive)	> 100 µM (inactive)	> 100 µM (inactive)	> 100 µM (inactive)	> 100 µM (inactive)	> 100 µM (inactive)	> 100 µM (inactive)	> 100 µM (inactive)	> 100 µM (inactive)	> 100 µM (inactive)	> 100 µM (inactive)	> 100 µM (inactive)	> 100 µM (inactive)	> 100 µM (inactive)	> 100 µM (inactive)	> 100 µM (inactive)	> 100 µM (inactive)	> 100 µM (inactive)
O=C(c1ccccc1)N(CCCCNC(=O)C(F)(F)F)CCCNC(=O)C(F)(F)F	> 100 µM (inactive)	> 100 µM (inactive)	> 100 µM (inactive)	> 100 µM (inactive)	> 100 µM (inactive)	> 100 µM (inactive)	> 100 µM (inactive)	> 100 µM (inactive)	> 100 µM (inactive)	> 100 µM (inactive)	> 100 µM (inactive)	> 100 µM (inactive)	> 100 µM (inactive)	> 100 µM (inactive)	> 100 µM (inactive)	> 100 µM (inactive)	> 100 µM (inactive)	32.6 µM (inactive)	> 100 µM (inactive)	> 100 µM (inactive)
COC1(OC)C2(Cl)C(Cl)=C(Cl)C1(Cl)C1c3ccc(C(C)=O)c4cccc(c34)C12 (stereo not given)	45.7 µM (inactive)	23 µM (inactive)	19 µM (inactive)	12.8 µM (inactive)	10.2 µM (inactive)	> 100 µM (inactive)	> 94.6 µM (inactive)	6.38 µM (inactive)	11.9 µM (inactive)	9.73 µM (inactive)	5.47 µM (inactive)	17 µM (inactive)	36.6 µM (inactive)	28.6 µM (inactive)	61.1 µM (inactive)	42.8 µM (inactive)	10.6 µM (inactive)	25.9 µM (inactive)	> 53.6 µM (inactive)	27.5 µM (inactive)
Cc1ccc2nc(CN(CCO)CCO)cc(=O)n2c1	> 100 µM (inactive)	> 100 µM (inactive)	> 100 µM (inactive)	> 100 µM (inactive)	> 100 µM (inactive)	> 100 µM (inactive)	> 100 µM (inactive)	> 100 µM (inactive)	> 100 µM (inactive)	> 100 µM (inactive)	> 100 µM (inactive)	> 100 µM (inactive)	> 100 µM (inactive)	> 100 µM (inactive)	> 100 µM (inactive)	> 100 µM (inactive)	> 100 µM (inactive)	> 100 µM (inactive)	> 100 µM (inactive)	> 100 µM (inactive)
Nc1cc(O)c2c(c1O)C(=O)C=CC2=O	7.89 µM (inactive)	19.6 µM (inactive)	12.3 µM (inactive)	6.62 µM (inactive)	9.31 µM (inactive)	26.5 µM (inactive)	15.2 µM (inactive)	5.78 µM (inactive)	7.76 µM (inactive)	13.6 µM (inactive)	4.66 µM (inactive)	67.1 µM (inactive)	10 µM (inactive)	20.8 µM (inactive)	22.9 µM (inactive)	17.7 µM (inactive)	16.1 µM (inactive)	30.7 µM (inactive)	4.33 µM (inactive)	10.9 µM (inactive)
CCOC(=O)/C(C(=O)Nc1cccc(C(F)(F)F)c1)=C(/N)N1CCOCC1	> 100 µM (inactive)	> 100 µM (inactive)	> 100 µM (inactive)	> 100 µM (inactive)	> 100 µM (inactive)	> 100 µM (inactive)	> 100 µM (inactive)	> 100 µM (inactive)	> 100 µM (inactive)	> 100 µM (inactive)	> 100 µM (inactive)	86.9 µM (inactive)	> 100 µM (inactive)	> 100 µM (inactive)	> 100 µM (inactive)	> 100 µM (inactive)	> 100 µM (inactive)	> 100 µM (inactive)	> 100 µM (inactive)	–
CC1OC(OC2C[C@](O)(C(=O)CBr)Cc3c(O)c4c(c(O)c32)C(=O)c2ccccc2C4=O)C(F)C(O)C1O (stereo not given in full)	3.66 µM (inactive)	4.67 µM (inactive)	1.53 µM (inactive)	9.73 µM (inactive)	36.3 µM (inactive)	30 µM (inactive)	7.89 µM (inactive)	2.56 µM (inactive)	7.14 µM (inactive)	9.89 µM (inactive)	–	12.7 µM (inactive)	15.8 µM (inactive)	13.5 µM (inactive)	13.5 µM (inactive)	23.8 µM (inactive)	6.92 µM (inactive)	8.83 µM (inactive)	2.69 µM (inactive)	1.22 µM (inactive)
N#CSCc1cccc(Nc2cc(=O)[nH]c(=O)[nH]2)c1	> 100 µM (inactive)	> 100 µM (inactive)	> 100 µM (inactive)	37.2 µM (inactive)	43.3 µM (inactive)	46.8 µM (inactive)	> 100 µM (inactive)	30.5 µM (inactive)	52 µM (inactive)	> 100 µM (inactive)	–	48.3 µM (inactive)	> 100 µM (inactive)	> 100 µM (inactive)	28.8 µM (inactive)	57.8 µM (inactive)	> 100 µM (inactive)	> 100 µM (inactive)	55.6 µM (inactive)	> 100 µM (inactive)
O=C(CSc1nc2ccc(I)cc2c(=O)n1Cc1ccccc1)N/N=C/c1ccccc1	11.8 µM (inactive)	25.2 µM (inactive)	21.7 µM (inactive)	> 100 µM (inactive)	67.1 µM (inactive)	1.01 µM (active)	14.8 µM (inactive)	29.6 µM (inactive)	43.3 µM (inactive)	8.2 µM (inactive)	58.1 µM (inactive)	29.9 µM (inactive)	23.8 µM (inactive)	57 µM (inactive)	10.6 µM (inactive)	> 100 µM (inactive)	66.1 µM (inactive)	11.1 µM (inactive)	> 100 µM (inactive)	–
